# Test results reported in patent publication US20050049294A1, “Methods of using [3.2.0] heterocyclic compounds and analogs thereof” (priority 2003, published 2005).
# Several values for one entry are separate records, joined by “and”; a condition that tells them apart may be missing. Equal entries are not always repeated.
# What was measured:
# CYP2C9 = CYP2C9 (Homo sapiens, UniProt P11712); assay: Preliminary P450 inhibition screen, CYP2C9
# Text: These studies consisted of solubility assessment, LogD^7.4 determination and a preliminary screen to detect cytochrome P450 enzyme inhibition.
# tumor cell lines = assay: Cytotoxicity / growth inhibition, summary over several cell lines; conditions: 48 h, read-out: EC50 values against RPMI 8226 and the prostate cell lines
# [1] = as above; conditions: human, mouse
# [2] = molecular target: chymotrypsin-like activity of human erythrocyte 20S proteasomes (Homo sapiens, UniProt P28074); assay: biochemical; conditions: EC50, chymotrypsin-like activity of human erythrocyte 20S proteasomes, separate lots of proteasomes
# Experimental: The substrate, suc-LLVY-AMC, was prepared as a 20 mM solution in DMSO and stored at −20° C. Human erythrocyte 20S proteasomes were obtained from BIOMOL (Cat. # SE-221). The proteasome can cleave suc-LLVY-AMC into suc-LLVY and free AMC and the activity can then be determined by measuring the fluorescence of the released AMC (λex=390 nm and λem=460 nm ). The proteasomes were activated by SDS and stored on ice as with the experiments using rabbit muscle proteasomes. […] The series was then diluted 20-fold with assay buffer and pre-incubated with proteasomes at 37° C. The reaction was initiated with substrate, and the release of AMC was followed in a Fluoroskan microplate fluorimeter. Data were collected and plotted as the mean of triplicate points.
# [3] = system: PARP and Pro-Caspase 3 cleavage in RPMI 8226 cells; assay: Cleavage of PARP and Pro-Caspase 3 (western blot), RPMI 8226; type: cell-based, human; conditions: 100 nM, 0, 8 or 24 hours
# Experimental: Total protein lysates were made and 20 μg of the lysates were then resolved under reducing/denaturing conditions and blotted onto nitrocellulose. The blots were then probed with anti-PARP or anti-caspase 3 antibodies followed by stripping and reprobing with an anti-actin antibody.
# 25 μg of the lysates were then resolved under reducing/denaturing conditions and blotted onto nitrocellulose. The blots were then probed with anti-PARP or anti-caspase 3 antibodies followed by stripping and reprobing with an anti-actin antibody.
# Chain of CYP2C9 (P11712 whole entry): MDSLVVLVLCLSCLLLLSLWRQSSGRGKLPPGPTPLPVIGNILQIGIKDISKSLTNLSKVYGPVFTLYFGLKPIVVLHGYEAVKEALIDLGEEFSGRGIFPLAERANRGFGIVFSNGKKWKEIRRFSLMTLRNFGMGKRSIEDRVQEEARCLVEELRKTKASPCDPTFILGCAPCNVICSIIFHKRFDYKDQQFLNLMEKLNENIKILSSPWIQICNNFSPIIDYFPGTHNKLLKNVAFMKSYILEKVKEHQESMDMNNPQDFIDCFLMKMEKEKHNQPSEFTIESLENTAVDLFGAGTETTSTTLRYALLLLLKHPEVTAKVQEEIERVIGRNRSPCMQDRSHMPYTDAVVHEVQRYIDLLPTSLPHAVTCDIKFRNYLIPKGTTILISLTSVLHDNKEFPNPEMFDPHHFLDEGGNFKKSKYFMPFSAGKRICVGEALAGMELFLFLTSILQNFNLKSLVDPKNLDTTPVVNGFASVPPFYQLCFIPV
smiles,measurement,setting,value
"C[C@@]12OC(=O)[C@]1([C@@H](O)[C@@H]1C=CCCC1)NC(=O)[C@@H]2CCCl [Formula II-16, Salinosporamide A]",inhibition at 10 µM,CYP2C9,6%
same,EC50,tumor cell lines,10 to 37 nM
same,EC50 at 48 h,[1],10 to 200 nM
same,EC50,[2],~0.25 nM and 0.045 to 0.247 nM and 0.045 to 0.25 nM
same,induction of PARP cleavage,[3],noticeable at 8 hours and complete by 24 hours
